Test system: LoVo colorectal cancer cells
Experiment: in vitro growth / proliferation of LoVo colon cancer cells
Assay type: cell-based, human
Details: for antineoplastic activity of peaks and peak combinations: 450 uM, FIG. 14
Method: FIG. 2. […] The extracts were prepared with water, then dried and dissolved in methanol. Control contains no extract added and the methanol control is a control containing 5% methanol as was used to dissolve the dried aqueous extract. FIG. 3. Effects of ethyl acetate (a and b) and methanol (c and d) extracts at to concentration of 75 ug/ml on LoVo colorectal cancer cells (a and c) and we38 human fetal fibroblast cells (b and d). FIG. 4. […] An assay to test the biological activity of individual peaks was carried out using the same antineoplastic test already evaluated for the whole extract. The main purpose of these studies was to identify who are the peaks with the highest biological activity and to determine a synergistic effect among the different compounds.

Compound	antineoplastic activity of peaks and peak combinations	concentration at which inhibitory effect of cellular proliferation was observed, converted (LoVo, corresponds to 1.7 mM)	concentration at which inhibitory effect of cellular proliferation was observed (LoVo, tested at 0.017, 0.17 and 1.7 mM, FIG. 4)
O=c1cc(-c2ccc(O)c(O)c2)oc2c(C3OC(CO)C(O)C(O)C3OC3OCC(O)C(O)C3O)c(O)cc(O)c12 (single isomer, unassigned; peak 1) [peak 1, 2″-O-β-O arabinopyranoside orientin (orientin traces)]	only a weak antineoplastic activity		
COc1cc(O)c2c(=O)cc(-c3ccc(O)c(O)c3)oc2c1C1OC(CO)C(O)C(O)C1OC1OCC(O)C(O)C1O (single isomer, unassigned; peak 2) [peak 2, isowertiajaponine (7-O-methyl orientin-2″-O-arabinopiranoside)]	only a weak antineoplastic activity	1000 µg/mL	1.7 mM
